Reference: paper PMC7995547, “ω‐Imidazolyl‐alkyl derivatives as new preclinical drug candidates for treating non‐alcoholic steatohepatitis” (Physiological Reports, 2021)

Tests used:
Format in all cases: in vivo, Wistar rats
[1] = tested on: HFD‐induced NASH rat model (serum); experiment: Liver enzyme activities and bilirubin in serum, NASH rat model
Experimental: (§1) Studies were done using Wistar rats of female sex by the Institute of Pharmacology and Biochemistry at Minsk. The animals were 80–90 days old and weighed 180–200 g. They had free access to a liquid Lieber‐DeCarli (LDC) diet (Lieber et al., 2004) and were housed under standard conditions meaning a 12‐h light/dark cycle at 22 ± 2°C and 55 ± 5% humidity.
(§2) Group 1 was designated as the first control group; it was fed a normal standard solid diet. Group 2, as the second control group, was fed a standard amount of fat as a part of the liquid “physiological,” non‐high fat LDC diet. All other groups received the liquid ‘disease‐causing’ LDC diet (Table 2), including a high content of unsaturated fatty acids.
(§3) Both LDC diets were in a liquid form as produced by ssniff‐Spezialdiäten GmbH, Soest (Germany). The feed was provided over the entire experimental period of 16 weeks; however, the corresponding experimental substances were only administered in the last four weeks (Figure 3).
(§4) The experimental substances I‐ol, I‐an, and UDCA were dissolved in a 0.8% aqueous HPMC gel to obtain the following concentrations: (1) I‐ol at 0.4, 4, and 40 mg/kg body weight (b.w.), (2) I‐an at 0.4, 4, and 40 mg/kg b.w., and (3) UDCA at 40 mg/kg b.w. The Group‐2 and −3 rats received only HPMC as placebo. Each test encompassed 6–8 rats that were put up in a separate cage. The rats were fed ad libitum, and their intake per cage was controlled daily. In order to ensure an exact daily reproducible dosage, the experimental substances or only HPMC was administered intragastrically via oral gavage. Basically, the drug therapy of a chronic disease is the more efficient the higher the adherence of the affected patients. This is generally higher with peroral administration than with any other form of application. At the end of the experiment, the animals were sacrificed under fasting conditions, by aorta dissection and exsanguination, after anesthetizing with an intraperitoneal injection of 5% pentobarbital solution.
(§5) The activities of the liver enzymes aspartate aminotransferase (AST), alanine aminotransferase (ALT), alkaline phosphatase (AP), and γ‐glutamyl transferase (γ‐GT) as well as bilirubin and triglyceride levels in the serum were determined as described by the instructions of BIO‐LA‐tests kit (Erba Lachema, Brno, Czech Republic).

[2] = tested on: HFD‐induced NASH rat model (liver); experiment: Area of connective tissue in the liver (Mallory‐Azan staining), NASH rat model; conditions: compound overall
Experimental: as §1, §2, §3, §4
Liver tissue sections were subject to the Mallory‐Azan (Heidenhain Azan) staining method for visualizing the connective tissues. This method was a modification of the original Mallory staining protocol, wherein azocarmin with a mixture of aniline blue and orange G was used. In this method, the collagen tissue and basophilic granules turn blue, the muscle tissue and acidophilic granules turn orange to red, and the cell nuclei and cytoplasm turn red. Elastic fibers remain unstained; however, they might turn yellow or pink. The proportion of positively stained liver tissue to the total area of the histological slide was determined quantitatively.

[3] = tested on: HFD‐induced NASH rat model (liver); experiment: Oxidative stress (ROS status) in the liver, HFD-induced NASH rat model; conditions: liver
Experimental: as §1
The rats were divided into 10 groups based on the diets and experimental substances administered (Figure 2).
as §2, §3, §4
The formation of ROS in the rat liver was measured using NADPH‐induced chemiluminescence as described by Müller‐Peddinghaus et al. (Muller‐Peddinghaus, 1987). Luminol and lucigenin were used for detecting the superoxide radical anion (SRA) and hydrogen peroxide. Liver pieces were homogenized in 0.1 M sodium phosphate buffer, pH 7.4; the homogenates were centrifuged at 9,000 × g at 0°C; and aliquots were used for subsequent measurements. Reduced glutathione (GSH) was estimated via a modified Ellman's method (Ellman, 1959), in which 0.2 mL of the liver homogenate supernatant was added to 1.6 mL of an EDTA/sodium phosphoric acid solution and the absorbance noted at 412 nm against blank values. GSH solution produced immediately before application served as the standard. The end products of the lipid peroxidation reaction were equivalent to the thiobarbituric acid‐reacting substances (TBARS), and their concentration was measured according to the method described by Buege et al. (Buege & Aust, 1978). Enzymatic activities of microsomal glutathione reductase (GR) and cytosolic glutathione peroxidase (GPx) were measured according to the methodology of Buko et al. (Buko et al., 2002). Catalase activity was determined according to the spectroscopic methodology described by Beers et al. (Beers & Sizer, 1952) using hydrogen peroxide as the substrate.

[4] = tested on: HFD‐induced NASH rat model (liver); experiment: Liver histopathology, semi‐quantitative evaluation, NASH rat model; set-up: key to Steatosis score / Balooning score: 0, none; 1, ≤25%; 2, 26–50%; 3, ≥51–75% of liver parenchyma
Experimental: as §1, §2, §3, §4
Pieces of liver tissue measuring 1 × 2 × 0.5 mm were chosen randomly and fixed for a week in the mixture of 1% formaldehyde and 1% paraformaldehyde in Sorensen's phosphate buffer (pH 7.4) (Morphisto GmbH, Frankfurt/Main). After this the pieces were kept in 2.5% glutaraldehyde in same buffer, rinsed and then post‐fixed in 1% solution of osmium tetroxide on the Sorensen's phosphate buffer (pH 7.4). After fixation, the liver samples were dehydrated and embedded in the pre‐polymerized mixture of methyl methacrylate and butyl methacrylate (1:4, v/v) containing 2,4‐dichlorbenzoyl peroxide as a catalyst.
[…] A semi‐quantitative evaluation of the sections was performed according to the procedure described by Koppe et al. (Koppe et al., 2004).

[5] = tested on: HFD‐induced NASH rat model (serum); experiment: Adipocytokines and glucose metabolism in serum, NASH rat model
Experimental: as §1, §2, §3, §4
The concentrations of adiponectin and TNFα were measured using ELISA kits sold by BioCat GmbH (Heidelberg, Germany), whereas the one for determining leptin level was procured from BioVendor Laboratory Medicine Inc. (Brno, Czech Republic). Insulin concentration was determined using the radioimmunoassay kit RIO‐insulin‐PG‐J125 (IBOCH, Minsk, Belarus). Serum glucose level was determined based on the “Accu‐Check Active blood glucose” monitoring method developed by Roche‐Diagnostics.

[6] = tested on: HFD‐induced NASH rat model (liver and serum); experiment: End products of fat metabolism (liver and serum lipids), NASH rat model; conditions: UDCA 40 mg/kg b.w.
Experimental: as §1, §2, §3, §4, §5
Extraction of lipids was performed using a solvent composed of chloroform and methanol (2:1 v/v). Thin‐layer chromatography (TLC) was used to separate off neutral lipids and phospholipids. Silicagel G 60 plates (0.25 mm thick) were used. The lipids were separated by ascending chromatography in a system composed of hexane:diethylic ether:glacial acetic acid (73:25:2; v/v/v). They were visualized by iodine vapor and the spots corresponding to triglycerides and cholesterol were scraped off and eluted with methanol for spectrophotometric evaluation. Triglyceride and cholesterol levels were determined using the BIO‐LA‐test kit (Erba Lachema, Brno, Czech Republic). Phospholipid concentration was determined by measuring the levels of phosphomolybdate using an inorganic phosphate reagent containing molybdate (Findlay & Evans, 1987). VLDL level was determined by using the manganese precipitation method (Burstein & Scholnick, 1973) after partial modification (Hirano et al., 2003).

[7] = serum, average over doses (I‐ol, I‐an), UDCA 40 mg/kg b.w.
[8] = serum, number: highest concentration (40 mg/kg b.w.), words: compound overall
[9] = average over doses (I‐ol, I‐an), UDCA 40 mg/kg b.w.
[10] = 40.0 mg/kg b.w. + HFD, H.E.‐stained liver slices
[11] = average over doses (I‐ol, I‐an)

C[C@H](CCC(=O)O)[C@H]1CC[C@H]2[C@@H]3[C@@H](O)C[C@@H]4C[C@H](O)CC[C@]4(C)[C@H]3CC[C@]12C [UDCA, ursodeoxycholic acid, reference compound]
Decrease in serum bilirubin level compared to disease group ([1]; average over doses, UDCA 40 mg/kg b.w.): no therapeutic effect
Decrease in γ‐GT enzymatic activity compared to disease group [1, 7]: 30%
Reduction of the effect of HFD on γ‐GT activity [1, 7]: 73%
Decrease in ALT enzymatic activity compared to disease group ([1]; serum, highest concentrations (40 mg/kg b.w.)): 15%
Reduction of the effect of HFD on ALT activity ([1]; serum, highest concentrations (40 mg/kg b.w.), b87: dose not stated): 50%
Decrease in AP enzymatic activity compared to disease group [1, 8]: no therapeutic effect
Decrease in AST enzymatic activity compared to disease group [1, 8]: no therapeutic effect
Effect on area of connective tissue in the liver (in words) [2]: no therapeutic effect
Increase in GR activity compared to disease group ([3]; I‐ol, I‐an groups overall, UDCA 40 mg/kg b.w.): 24%
Decrease in SRA level compared to disease group ([3]; average over 0.4, 4, 40 mg/kg b.w. (I‐ol, I‐an), UDCA 40 mg/kg b.w., oral gavage daily, last 4 of 16 weeks HFD): 30%
Decrease in TBARS level compared to disease group [3, 9]: 27%
Reduction of the effect of HFD on the SRA level [3, 9]: 84%
Reduction of the effect of HFD on the TBARS level [3, 9]: 63%
Effect on GSH level (in words) ([3]; compound overall): overall ineffective
Decrease in hydrogen peroxide level compared to disease group ([3]; highest concentration (40 mg/kg b.w.)): no significant effect
Effect of HFD nullified, GR activity increased by (on an average) ([3]; relative to the effect of HFD): 99%
Balooning score [4, 10]: 0
Inflammation score [4, 10]: 1 (1, <5 signs of inflammation)
Steatosis score [4, 10]: 0–1
Effect on liver histology (in words) ([4]; animals with NASH (HFD)): improved liver histology
Decrease in serum glucose level ([5]; 40 mg/kg b.w.): 26%
Reversal of the effect of HFD on serum glucose level ([5]; 40 mg/kg b.w.): 100%
Reduction of the effect of HFD on serum TNF‐α level ([5]; average over doses (I‐ol), UDCA 40 mg/kg b.w.): 75%
Decrease in serum TNF‐α level compared to disease group [5, 9]: 56%
Decrease in serum leptin compared to disease group [5, 9]: 21%
Increase in serum adiponectin compared to disease group [5, 9]: 42%
Reduction of the effect of HFD on serum adiponectin ([5]; average over doses (I‐ol, I‐an), UDCA 40 mg/kg b.w. (elevated the concentration by)): 52%
Reduction of the effect of HFD on serum leptin ([5]; average over doses (I‐ol, I‐an), UDCA 40 mg/kg b.w. (reduced leptin concentration)): 72%
Decrease in liver triglyceride levels compared to disease group [6, 11]: 17%
Reduction of the effect of HFD on liver triglyceride levels [6, 11]: 39%
Decrease in liver phospholipid levels compared to disease group ([6]; average over doses): no therapeutic effect
Decrease in serum LDL cholesterol ([6]; average over doses): non‐significant trend toward lowering the serum LDL level
Decrease in serum triglyceride levels compared to disease group ([6]; average over doses): no therapeutic effect
